Assays:
Assay type in all cases: cell-based
Conditions in all cases: 12.5 μg synthesized peptide per 1 mL cell culture medium, 24 h, 37° C.
FBN1 gene = FBN1 gene expression in human fibroblasts (CCD-966SK), qPCR
Method: (§1) In order to confirm the effect of each of the amino acid sequences on gene expression in cells, human fibroblasts (CCD-966SK) and individual peptides were co-cultured, and then, gene expression in the cells was analyzed. 11 types of synthesized peptides were respectively subjected to cell experiments. In addition, the amino acid sequences of 11 types of synthesized peptides were respectively SEQ ID NO: 1, SEQ ID NO: 2, SEQ ID NO: 3, SEQ ID NO: 4, SEQ ID NO: 5, SEQ ID NO: 6, SEQ ID NO: 7, SEQ ID NO: 8, SEQ ID NO: 9, SEQ ID NO: 10 and SEQ ID NO: 11. Hereafter, the sequence numbers SEQ ID NO: 1 to SEQ ID NO: 11 will be referred to as groups.
(§2) Cell gene expression test refers to that after the human fibroblasts (purchased from Food Industry Research and Development Institute) and samples to be tested (such as peptides or compositions) were co-cultured, then, RNA in the cells was collected for analysis. Referring to Table 3, the gene expression test groups were divided into 13 groups. 11 groups therein were peptide experiment groups (Experiment group A to Experiment group K), 1 group was a composition experiment group (Experiment group L), and 1 group was a control group. In addition, each group was co-cultured with 1×10^5 human fibroblasts in a cell culture plate containing 2 mL of cell culture medium (X-VIVO™ 10). Experiment group A to Experiment group K respectively corresponded to 11 groups of peptide experiment groups of 11 types of synthesized peptides (SEQ ID NO: 1, SEQ ID NO: 2, SEQ ID NO: 3, SEQ ID NO: 4, SEQ ID NO: 5, SEQ ID NO: 6, SEQ ID NO: 7, SEQ ID NO: 8, SEQ ID NO: 9, SEQ ID NO: 10 and SEQ ID NO: 11) prepared according to Example III. Experiment group L was a composition experiment group added with the composition. In addition, the composition was identified in Example II to be tilapia fish skin collagen peptide powder (purchased from LAPI, Italy) including […] of peptides (i.e., SEQ ID NO: 1, SEQ ID NO: 2, SEQ ID NO: 3, SEQ ID NO: 4, SEQ ID NO: 5 and SEQ ID NO: 6). No peptide or composition was added in Control group.
(§3) For each group of peptide experiment groups (corresponding to Experiment group A to Experiment group K), according to a proportion of 12.5 μg of synthesized peptide per 1 mL of cell culture medium, the human fibroblasts were cultured for 24 h at 37° C. For the composition experiment group (corresponding to Experiment group L), according to a proportion of 100 mg of composition per 1 mL of cell culture medium, the human fibroblasts were cultured for 24 h. For Control group, no peptide was added, and the human fibroblasts were cultured for 24 h in a pure cell culture medium. In addition, after culture for 24 h, the peptide-containing cell culture medium or the pure culture medium was removed from each group, and cells in each group were washed by a phosphate buffer solution (PBS) so as to remove the residual culture medium. The washed cells were spun down and were subjected to cell lysis by a cell lysis solution (purchased from Geneaid company, Taiwan). Then, RNA in each group of cells was extracted by an RNA extraction kit (purchased from Geneaid company, Taiwan). Next, the extracted RNA was subjected to inverse transcription to obtain cDNA by a cDNA synthesis reagent (purchased from Geneaid company, Taiwan). In addition, the intracellular gene expression was observed by a polymerase chain reaction (PCR) instrument using different primers (as shown in Table 3). In addition, the primers firstly reacted by a green fluorescent dye of SYBR green dye (Applied Biosystem), and quantification of gene expression was performed by a 2-ΔΔCt method. It should be noted that the gene expression in the drawings corresponding to the experiments was shown in relative fold or percentage, wherein standard deviations were calculated by an STDEV formula of Excel software, and statistically significant differences were analyzed by one-tailed student t-test in the Excel software. […]

LOX gene = LOX gene expression in human fibroblasts (CCD-966SK), qPCR
Method: as §1
as §2, with “No peptide or composition was added in Control group.” left out
(§4) For each group of peptide experiment groups (corresponding to Experiment group A to Experiment group K), according to a proportion of 12.5 μg of synthesized peptide per 1 mL of cell culture medium, the human fibroblasts were cultured for 24 h at 37° C. […] In addition, the primers firstly reacted by a green fluorescent dye of SYBR green dye (Applied Biosystem), and quantification of gene expression was performed by a 2-ΔΔCt method. It should be noted that the gene expression in the drawings corresponding to the experiments was shown in relative fold or percentage, wherein standard deviations were calculated by an STDEV formula of Excel software, and statistically significant differences were analyzed by one-tailed student t-test in the Excel software. […]

TIMP1 gene = TIMP1 gene expression in human fibroblasts (CCD-966SK), qPCR
Method: as §1, §2
as §3, with “The washed cells were spun down and were subjected to cell lysis by a cell lysis solution (purchased from Geneaid company, Taiwan). Then, RNA in each group of cells was extracted by an RNA extraction kit (purchased from Geneaid company, Taiwan). Next, the extracted RNA was subjected to inverse transcription to obtain cDNA by a cDNA synthesis reagent (purchased from Geneaid company, Taiwan). In addition, the intracellular gene expression was observed by a polymerase chain reaction (PCR) instrument using different primers (as shown in Table 3).” left out

MMP2 gene = MMP2 gene expression in human fibroblasts (CCD-966SK), qPCR
Method: as §1, with “groups. […]” for “groups.”
as §4

| Substance | FBN1 gene expression level, folds of Control group (FBN1 gene) | LOX gene expression level, folds of Control group (LOX gene) | TIMP1 gene expression level, folds of Control group (TIMP1 gene) | MMP2 gene expression inhibition (MMP2 gene) | MMP2 gene expression percentage (Control group regarded as 100%) (MMP2 gene) |
| --- | --- | --- | --- | --- | --- |
| DQGIRLL (listed as Oreochromis mossambicus) [SEQ ID NO: 10, synthesized peptide of Plectin b] | about 6 folds |  |  |  |  |
| AVNGLTLAGGRGLNTGAALT (listed as Oreochromis mossambicus) [SEQ ID NO: 5, synthesized peptide of tilapia skin, Collagen, type VI] | about 6 folds | about 2.5 folds |  |  |  |
| PGPMGPMGINGA (listed as Oreochromis mossambicus) [SEQ ID NO: 4, synthesized peptide of tilapia skin, Collagen, type V] | about 16 folds |  |  |  |  |
| PGQPGLSGVPGADGKPGLPGP (listed as Oreochromis mossambicus) [SEQ ID NO: 8, synthesized peptide of tilapia skin, Collagen, type XVIII] | about 9 folds |  | about 5 folds |  |  |
| ALVQNREGP (listed as Oreochromis mossambicus) [SEQ ID NO: 6, synthesized peptide of tilapia skin, Collagen, type VII] | about 5 folds |  | about 3 folds |  |  |
| QRGEPGPNGAV (listed as Oreochromis mossambicus) [SEQ ID NO: 11, synthesized peptide of tilapia skin, Procollagen, type I] | about 5 folds | about 3 folds | about 5 folds |  |  |
| GLPGVQGNI (listed as Oreochromis mossambicus) [SEQ ID NO: 2, synthesized peptide of tilapia skin, Collagen, type IV] | about 6 folds | about 5.7 folds | about 7.8 folds |  |  |
| MFGKDVW (listed as Oreochromis mossambicus) [SEQ ID NO: 9, synthesized peptide of N-acetylglucosamine-1-phosphotransferase subunits alpha/beta] | about 4 folds | about 2.5 folds | about 3 folds |  |  |
| NGLPGSPGLP GRQGE (NGLPGSPGLPGRQGE; listed as Oreochromis mossambicus) [SEQ ID NO: 7, synthesized peptide of tilapia skin, Collagen, type XII] | about 5 folds |  |  |  |  |
| IGIFGQTGPPGE (listed as Oreochromis mossambicus) [SEQ ID NO: 3, synthesized peptide of tilapia skin, Collagen, type IV] | about 3 folds |  |  | about 60% | about 40% |
